Measured values reported in article PMC5201331, “Subchronic Toxicities of HZ1006, a Hydroxamate-Based Histone Deacetylase Inhibitor, in Beagle Dogs and Sprague-Dawley Rats” (International Journal of Environmental Research and Public …, 2016).

Assays:
Format in all cases: in vivo, Sprague-Dawley (SD) rats
SD rats [1] = test: Subchronic toxicity test in SD rats: organ weights; settings: for Adrenal gland absolute weight / Brain relative weight: female rats; for Kidney relative weight / Testis absolute weight: male rats
Procedure: The rats that were judged suitable for the subchronic toxicity study were randomly divided into four groups (10 rats/sex/group). The rats received the test sample by gavage once daily for 28 days. HZ1006 was administered to the rats at doses of 120, 60, 20 and 0 (control) mg/kg, and the dosage volume was 5 mL/kg. Half of the 80 rats (half male and half female) were selected randomly according to body weight and dissected at d28. The remaining rats were dissected at […]. After euthanasia, the following organs or tissues were isolated from the dogs and rats: skin, abnormal lesions, spleen, mammary glands, jejunum, pancreas, ileum, duodenum, stomach, colon, cecum, lymph nodes, mesenteric salivary glands, liver, submandibular lymph nodes, thymus, sternum, lungs, heart, esophagus, trachea, tongue, thyroid with parathyroid gland, sciatic nerve, aorta, femurs, skeletal muscle, pituitary gland, brain, kidneys, eyes, urinary bladder, adrenal glands, uterus, ovaries, testes, epididymis and prostate. The weights of the animal organs, such as the liver, spleen, heart, thymus, brain, lungs, adrenal glands, kidneys, uterus, ovaries, epididymis and testes, were tested using an electronic balance. The organs or tissues were fixed using 10% neutral buffered formalin and were then gradient dehydrated, embedded, sectioned, and stained with routine hematoxylin-eosin prior to histopathological observations.

SD rats [2] = test: Subchronic toxicity test in SD rats: overall (NOAEL, urinalysis, bone marrow, histopathology); settings: daily oral administration, 28 days
Procedure: (§1) The rats that were judged suitable for the subchronic toxicity study were randomly divided into four groups (10 rats/sex/group). The rats received the test sample by gavage once daily for 28 days. HZ1006 was administered to the rats at doses of 120, 60, 20 and 0 (control) mg/kg, and the dosage volume was 5 mL/kg. Half of the 80 rats (half male and half female) were selected randomly according to body weight and dissected at d28. The remaining rats were dissected at d42.
(§2) A Micro AUTION MA-4260 Autoanalyzer from Arkray Global Business, Inc. (kyoto, Japan), was used to analyze the animal urine samples. Parameters such as pH, specific gravity, nitrites, leukocytes, glucose, protein, urobilinogen, ketones, occult blood, bilirubin, and hemoglobin were tested.
(§3) Bone marrow samples were obtained according to the methods reported previously. We classified the bone marrow cells by immersion objective. […]

[3] = as above; settings: both sexes, Sprague-Dawley, rat, in vivo, daily oral administration, read-out: NOAEL (No Observed Adverse Effect Level)
Procedure: as §1, §2, §3

[4] = 20 mg/kg oral daily, d42 (recovery)
[5] = 60 mg/kg oral daily, d42 (recovery)
[6] = 120 mg/kg oral daily, d42 (recovery)

CCCCCCCNc1cc(/C=C/C(=O)NO)ccc1OCCN(CC)CC [HZ1006]
Adrenal gland absolute weight (SD rats [1]; 20 mg/kg oral daily, d28): 0.081 ± 0.005 g
Brain relative weight (SD rats [1]; 20 mg/kg oral daily, d28): 0.728 ± 0.047 g/100 g
Adrenal gland absolute weight (SD rats [1]; [4]): 0.072 ± 0.008 g
Brain relative weight (SD rats [1]; [4]): 0.768 ± 0.020 g/100 g
Adrenal gland absolute weight (SD rats [1]; 60 mg/kg oral daily, d28): 0.068 ± 0.003 g
Brain relative weight (SD rats [1]; 60 mg/kg oral daily, d28): 0.799 ± 0.062 g/100 g
Adrenal gland absolute weight (SD rats [1]; [5]): 0.071 ± 0.012 g
Brain relative weight (SD rats [1]; [5]): 0.768 ± 0.068 g/100 g
Adrenal gland absolute weight (SD rats [1]; 120 mg/kg oral daily, d28): 0.066 ± 0.008 g
Brain relative weight (SD rats [1]; 120 mg/kg oral daily, d28): 0.834 ± 0.042 g/100 g
Adrenal gland absolute weight (SD rats [1]; [6]): 0.069 ± 0.011 g
Brain relative weight (SD rats [1]; [6]): 0.745 ± 0.089 g/100 g
Kidney relative weight (SD rats [1]; 20 mg/kg oral daily, d28): 0.707 ± 0.024 g/100 g
Testis absolute weight (SD rats [1]; 20 mg/kg oral daily, d28): 2.707 ± 0.090 g
Kidney relative weight (SD rats [1]; [4]): 0.693 ± 0.033 g/100 g
Testis absolute weight (SD rats [1]; [4]): 2.798 ± 0.112 g
Kidney relative weight (SD rats [1]; 60 mg/kg oral daily, d28): 0.705 ± 0.039 g/100 g
Testis absolute weight (SD rats [1]; 60 mg/kg oral daily, d28): 2.624 ± 0.170 g
Kidney relative weight (SD rats [1]; [5]): 0.687 ± 0.020 g/100 g
Testis absolute weight (SD rats [1]; [5]): 2.787 ± 0.097 g
Kidney relative weight (SD rats [1]; 120 mg/kg oral daily, d28): 0.673 ± 0.023 g/100 g
Testis absolute weight (SD rats [1]; 120 mg/kg oral daily, d28): 2.666 ± 0.115 g
Kidney relative weight (SD rats [1]; [6]): 0.624 ± 0.053 g/100 g
Testis absolute weight (SD rats [1]; [6]): 2.723 ± 0.161 g
minimum toxic dose (SD rats [2]): 120 mg/kg
NOAEL at 28 days [3]: 60 mg/kg
